“And” between values parts separate entries of the source, which are not always exact repeats. Equal entries are not always repeated. Where two headings read alike, the source gives them in different places.

The target of the assay is T1, DrOTOP1 G130W/A388W (Danio rerio, UniProt Q7ZWK8, A388W/G130W).
T1 construct: A previously generated codon-optimized full-length DrOTOP1[8]; (UniProt: Q7ZWK8) construct; expressed in transfected cells; host or cells: HEK-293 (CRL-1573, ATCC)
T1 sequence (Q7ZWK8 1-586 G130W/A388W): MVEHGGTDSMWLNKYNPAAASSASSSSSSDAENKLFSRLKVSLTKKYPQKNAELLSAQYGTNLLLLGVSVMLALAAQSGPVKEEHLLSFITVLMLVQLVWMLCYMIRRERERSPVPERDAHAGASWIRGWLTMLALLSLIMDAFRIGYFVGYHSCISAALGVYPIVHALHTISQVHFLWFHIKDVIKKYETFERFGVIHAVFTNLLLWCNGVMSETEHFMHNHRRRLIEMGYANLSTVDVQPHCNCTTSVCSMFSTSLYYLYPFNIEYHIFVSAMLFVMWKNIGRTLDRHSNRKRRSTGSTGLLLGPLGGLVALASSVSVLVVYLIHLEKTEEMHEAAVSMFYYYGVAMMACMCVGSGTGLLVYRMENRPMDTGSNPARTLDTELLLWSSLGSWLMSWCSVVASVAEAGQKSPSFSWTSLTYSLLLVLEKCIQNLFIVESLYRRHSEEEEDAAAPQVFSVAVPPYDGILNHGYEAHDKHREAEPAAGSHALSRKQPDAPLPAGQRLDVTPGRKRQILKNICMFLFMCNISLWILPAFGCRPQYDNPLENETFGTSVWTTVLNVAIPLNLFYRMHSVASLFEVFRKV
Nature of the assay: Whole-cell patch-clamp, inhibition of acid-evoked currents, DrOTOP1 G130W/A388W. Format: cell-based, zebrafish (Danio rerio). As for the experimental part:
Given our limited success in identifying mutations of the central site that disrupt antagonism by C2.2, we tested whether mutations of the central site in a background of G130W (the most impactful outer site mutation) might unmask contributions of this site. Thus, we generated and tested double mutants of G130W with E384A, A274W, and A388W. […] We also measured the dose-dependence of inhibition by C2.2 for both G130W/A388W and G130W/E384A (Fig. 5I, J). […] G130W was tested in parallel to confirm that 100 and 300 μM C2.2 produced dose-dependent inhibition.
HEK-293 cells (CRL-1573, ATCC) were cultured in DMEM (Thermofisher 11995073) containing 10% fetal bovine serum (Life Technology 16000044) and Penicillin-Streptomycin (100 I.U./mL) and (100 µg/mL), respectively. Cells were transfected with WT DrOTOP1 or mutant DrOTOP1 channels in 35 mm petri dishes, with ~ 500 ng DNA and 2 μL TransIT-LT1 transfection reagent (Mirus Bio Corporation, Cat # MIR2300) following the manufacturer’s protocol. All constructs were subcloned into a pcDNA3.1 vector that adds an N-terminal fusion tag consisting of an octahistidine tag followed by eGFP, a Gly-Thr-Gly-Thr linker and a 3C protease cleavage site ([…]) followed by WT DrOTOP1, WT mOTOP1, WT hOTOP1, or mutated DrOTOP1. Point mutations were generated via In-Fusion Cloning (Takara) using single-stranded DNA primers generated through IDT and sequence confirmed by Sanger sequencing (GeneWiz).
Whole-cell patch-clamp recording was performed as previously described[6],[22],[25]. Recordings were made with an Axopatch 200B amplifier, digitized with a Digidata 1322a 16-bit data acquisition system, acquired with pClamp 8.2 and analyzed with Clampfit 10 (Molecular Devices). Recordings were sampled at 5 kHz and filtered at 1 kHz. Patch Pipettes with resistance of […] were fabricated from borosilicate glass, and only recordings with a giga-Ohm seal were used in analysis. Membrane potential was held at −80 mV for the duration of recordings. At the beginning of recordings and between, cells were washed with Tyrode’s solution (see below). Once a giga-Ohm seal was reached, cells were lifted and placed in front of microcapillary tubes controlled by a Fast-Step perfusion system (Warner Instruments) so that extracellular solutions could be rapidly exchanged during each experiment.
Standard Tyrode’s solution consisted of 145 mM NaCl, 5 mM KCl, MgCl2, 2 mM CaCl2, 20 mM D-Glucose, and 10 mM HEPES (for pH 7.4). All other extracellular patch-clamp solutions contained 160 mM NMDG-Cl, 2 mM CaCl2, and the following buffers: 10 mM HEPES (for pH 7.4), 10 mM MES (for pH 6.5-5.5), 10 mM CHES for pH 10, and 10 mM HomoPIPES for (pH 5.0). pH adjusted with HCl. When adding compounds to extracellular solutions, the concentration of DMSO in solution was never higher than 0.3%. The pipette contained intracellular solution made up of 120 mM Cs-aspartate, 15 mM CsCl, 2 mM Mg-ATP, 5 mM EGTA, 2.4 mM CaCl2 (100 nM free Ca^2+), and 10 mM HEPES with a pH of 7.3. All extracellular solution osmolarity was adjusted to 300 mOsm and intracellular osmolarity was adjusted to 290 mOsm.
All data are presented as mean ± SEM unless otherwise noted, and each data point represents an independent replicant. Inhibition of compounds was quantified as ((I2peak-I1)/(I2peak))*100, where I1 is the current immediately before wash-off and I2peak is the maximum recovered current (Supplementary Fig. 2). Hill coefficients were determined by the following equation: Y = Bmax*X^h/(Kd^h + X^h). Absolute IC50 was determined by the following equation: Fifty = (Top + Baseline)/2 Y = Bottom + (Top-Bottom)/(1 + ((Top-Bottom)/(Fifty-Bottom) − 1)*(AbsoluteIC50/X)^HillSlope). pH50 curves (Fig. 6G inset) were determined using the following equation: Y = Bottom + (Top-Bottom)/(1 + (EC/X)^HillSlope) where EC = EC50 control. Graphs with electrophysiological data were made in Graphpad Prism 10 (Graphpad Software Inc). […]
(In general: The patch-clamp technique gives a direct electrical read-out from membranes.)

Where [1] appears, read: 100 µM, DrOTOP1 G130W/A388W, single cells.

As for `C=C(C)COc1ccccc1NC(=O)c1nc[nH]c1C` [C2.2], the Inhibition of currents runs as follows: (10 µM, DrOTOP1 G130W/A388W, single cells or mean, mean) 1.543%; (10 µM, DrOTOP1 G130W/A388W, single cells or mean, single cells) 2.216% and 2.459% and 1.638% and 1.737% and 0.722% and 0.4878%. The HillSlope reads like this: (DrOTOP1 G130W/A388W) 1.10; (G130W/A388W, best-fit value) 1.1. Besides, the “Reduction in sensitivity (IC50) compared with single mutant G130W” value (DrOTOP1 G130W/A388W) was 3 fold and ~ 3 fold. Also, the IC50 (DrOTOP1 G130W/A388W, pH 5.5, read-out: IC50) turned out to be 397 µM and the IC50 (G130W/A388W, best-fit value, Top = 100, Bottom = 0, read-out: AbsoluteIC50) is 397 µM. The molecule also registered a LogAbsoluteIC50 (G130W/A388W, best-fit value) of 2.599.
As for `O=C(/C(=N\O)c1ccccc1)c1ccccc1` [C11, benzil monoxime], under setting [1], the Inhibition of currents was 63.5701% and 65.9051% and 61.9048% and 72.4545% and 68.6192%; 100 µM produced 63.1% inhibition.

The values are drawn from paper PMC12549899 (Nature Communications, 2025).
